Test results as given in patent US20150133341A1, “Intra-Operative Cancer Diagnosis Based on a Hyperpolarized Marker” (ALBEDA INNOVATIONS APS, priority 2012, published 2015).
Counter-ions that a name gives are not always drawn. Like-named read-outs stand apart in the source and are kept apart here. Marks after values point to notes of the source that are not given here. One block for each compound: values may come before it.

Tests used:
[1] = target: T1, CE-2 in lysed human breast cancer cells (MCF-7) (Homo sapiens, UniProt O00748); assay: CE-2 activity on acetate esters in lysed MCF-7 cells, 1H NMR; type: biochemical; conditions: for k: 5 million lysed MCF-7 cells, 37° C., 1 hour; for hydrolysis by CE-2, in words: lysed MCF-7 cells
T1 construct: endogenous in cells; host or cells: MCF-7 (sonicated lysate)
T1 sequence (O00748 27-559): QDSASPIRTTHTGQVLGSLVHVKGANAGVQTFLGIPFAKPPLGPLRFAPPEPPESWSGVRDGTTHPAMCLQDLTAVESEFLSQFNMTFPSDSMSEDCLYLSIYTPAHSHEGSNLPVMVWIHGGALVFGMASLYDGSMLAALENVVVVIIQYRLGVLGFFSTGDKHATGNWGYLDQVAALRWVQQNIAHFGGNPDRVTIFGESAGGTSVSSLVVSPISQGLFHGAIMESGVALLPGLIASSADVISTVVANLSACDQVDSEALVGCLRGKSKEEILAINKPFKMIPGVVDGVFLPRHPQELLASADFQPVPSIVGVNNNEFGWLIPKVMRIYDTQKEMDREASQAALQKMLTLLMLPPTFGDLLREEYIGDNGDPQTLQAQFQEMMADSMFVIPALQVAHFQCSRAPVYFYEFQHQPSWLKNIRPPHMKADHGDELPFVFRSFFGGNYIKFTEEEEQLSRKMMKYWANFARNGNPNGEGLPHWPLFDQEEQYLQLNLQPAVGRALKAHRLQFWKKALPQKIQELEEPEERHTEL
Protocol: Different classes of short chain esters, fulfilling the requirements for the hyperpolarization technique (stable, soluble, low molecular weight compounds (<400 Da), were evaluated as substrates for carboxyl esterases with the aim to identify esters as similar or better substrates for carboxyl esterases than 1,3-^13C2 ethyl acetoacetate. In most human cell types, including a wide range of cancer cells and lymphocytes, the activity of carboxyl esterase is dominated by the activities of isoforms 1 and 2 (CE-1 and CE-2). To measure exclusively the hydrolysis of carboxyl esterase from the CE-1 isoform, an isolated enzyme from porcine liver was applied. To measure almost exclusively the contribution of carboxyl esterase activity from the CE-2 isoform, human breast cancer cells (MCF-7) were employed. These cells are known from literature to express CE-2 but not to express CE-1 (Byun et al, 2008, Cancer letters 266:238-48). A group of esters was investigated as substrates for CE-1, which contained different structural features. […] Also esters with large alcohol groups and small acid groups were investigated. In this group, the acid part of the molecule was always acetate and different structural properties of the alcohol were investigated. These consisted of esters of un-substituted alcohols (examples ethyl acetate and butyl acetate), esters of branched chain alcohols (examples t-butyl acetate, ethyl 3-acetoxy butanoate and 2-acetoxy propionate), esters of aromatic alcohols (example benzyl acetate), esters of diols (example ethyleneglycol diacetate), esters of triols (example triacetin). Esters of alpha-keto acids were too unstable to be investigated in this assay. Esters of larger alcohols are not water soluble and therefore not relevant substrates for the purpose of the invention. Similarly, a group of esters which contained different structural features was investigated as substrates for CE-2. CE-2 substrates are described in the literature to consist of a small acid group and a larger alcohol group. All included esters were acetate esters (i.e. esters of acetic acid) in the interest of keeping the acid moiety the smallest possible. The acetate esters measured for CE-2 activity were therefore the same as those measured in the second group of possible substrates for CE-1. The CE-2 experiments were performed with lysed breast cancer cells (MCF-7). MCF-7 cells were grown in RPMI medium with 10% FBS and antibiotics. They were at confluence harvested by trypsination and washed once with 5 ml PBS. They were spun down and resuspended in PBS to a concentration of 20 mill. cells/ml. The cells were hereafter sonicated on ice (50% amplitude, 1 min, 3 sec pulse). 250 μl sonicated cell suspension was mixed with 250 μl 400 mM phosphate buffer pH 7.3. […] The substrate was added (50 μl, 60 mM) and the tube turned for mixing before it was inserted into the spectrometer. An initial spectrum was acquired and the sample was hereafter placed at 37° C. for 1 hour in a water bath. The sample was again inserted into the magnet and a second spectrum was recorded. The data was analysed with MNOVA software and measured as percentage conversion of substrate calculated to account for the amount of substrate converted over 60 min. The numbers are given in μmol/hour.

[2] = test system: isolated CE-1 enzyme from porcine liver; assay: CE-1 activity on short chain esters, 1H NMR; type: biochemical; conditions: for k: 26 μmol substrate, conversion over 60 min; for faster converted than ethyl acetate: vs ethyl acetate
Source text: To measure almost exclusively the contribution of carboxyl esterase activity from the CE-2 isoform, human breast cancer cells (MCF-7) were employed. These cells are known from literature to express CE-2 but not to express CE-1 (Byun et al, 2008, Cancer letters 266:238-48). A group of esters was investigated as substrates for CE-1, which contained different structural features. These consisted of esters of un-substituted acids (examples are ethyl acetate, ethyl butyrate, methyl butyrate), esters of acids substituted on C2 (examples are ethyl lactate and ethyl 2-acetoxy propanoate), esters of acids substituted on C3 (examples are ethyl 3-hydroxy butyrate and ethyl 3-acetoxy butanoate), esters of ring closed acids (example ethyl pyroglutamate), esters of di-acids (examples are diethyl succinate and dimethyl succinate), esters of tri-acids (example triethyl citrate), ethyl esters of beta-keto acids (example ethyl acetoacetate). Also esters with large alcohol groups and small acid groups were investigated. In this group, the acid part of the molecule was always acetate and different structural properties of the alcohol were investigated. These consisted of esters of un-substituted alcohols (examples ethyl acetate and butyl acetate), esters of branched chain alcohols (examples t-butyl acetate, ethyl 3-acetoxy butanoate and 2-acetoxy propionate), esters of aromatic alcohols (example benzyl acetate), esters of diols (example ethyleneglycol diacetate), esters of triols (example triacetin). […] Similarly, a group of esters which contained different structural features was investigated as substrates for CE-2. CE-2 substrates are described in the literature to consist of a small acid group and a larger alcohol group. All included esters were acetate esters (i.e. esters of acetic acid) in the interest of keeping the acid moiety the smallest possible. The acetate esters measured for CE-2 activity were therefore the same as those measured in the second group of possible substrates for CE-1.
The CE-1 experiments were performed with commercially available CE-1 from porcine liver. Individual samples of the substrates were all prepared the following way: 26 μmol was weighted in an eppendorf tube. 550 μl deuterated phosphate buffer (200 mM, pH 7.5) was added and the substrate was brought into solution by whirl mixing. The solution was transferred to a 5 mm NMR tube and inserted in the spectrometer at 37° C. A reference experiment was acquired on the substrate solution without enzyme after which 10 μl of an esterase stock solution (37 U/ml in deuterated phosphate buffer) was added in the top of the tube. The sample was mixed and returned to the spectrometer. A series of thermal 1D ^1H NMR experiments were recorded every 5 min for 60 min. The data were analysed with MNOVA software and measured as percentage conversion of substrate calculated to account for the amount of substrate converted over 60 min. The numbers are given in μmol/min.

[3] = test system: carboxyl esterase in lysed lymphocytes (B + T cells); assay: Carboxyl esterase activity in cell extract, 1H NMR; type: biochemical, human; conditions: 5 million lysed cells, 37° C.
Protocol: (§1) The hydrolysis of the substrates was investigated in cell extracts. To test substrates without isotope labelling for carboxyl esterase activity in a cellular background, a ^1H NMR assay was applied. Human breast cancer cells (MCF-7) and human prostate cancer cells (PC-3) were grown in RPMI medium with 10% FBS and antibiotics. They were at confluence harvested by trypsination and washed once with 5 ml PBS. They were spun down and resuspended in PBS to a concentration of 20 mill. cells/ml. The cells were hereafter sonicated on ice (50% amplitude, 1 min, 3 sec pulse). Human lymphocytes were purified from whole blood. Whole blood samples were drawn from healthy volunteer into heparinised venous blood collection tubes (Venosafe vacumtubes from Terumo). For each experiment, the blood was purified freshly: Three and a half 10 mL tubes of blood were pooled in each of four 50 mL Leucosep (Greiner) tubes prepared with 15 mL Histopaque 1077 (Sigma). The Leucosep tubes were spun for 15 min at 800× g at 24 C. The plasma was removed and the white blood cells were transferred to a 50 mL falcon tube by decanting and diluted 1:2 in PBS-Mg—Ca for a total volume of 50 mL. The cells were sedimented by centrifugation at 250×g for 60 min. Diluting with trypan blue and counting in hemocytometer determined the total number of lymphocytes before sedimentation. All cells were viable and the total number of cells in each cell batch was approx. 60 million. The lymphocytes were redissolved to a concentration of 20 million cells/ml. The cells were hereafter sonicated on ice (50% amplitude, 1 min, 3 sec pulse).
(§2) 250 μl sonicated cell suspension was mixed with 250 μl 400 mM phosphate buffer pH 7.3. This solution was transferred to a 5 mm NMR tube and warmed on a water bath to 37° C. The substrate was added (50 μl, 60 mM) and the tube turned for mixing before it was inserted into the spectrometer. The data was analyzed with MNOVA software and measured as percentage conversion of substrate calculated to account for the amount of substrate converted over 60 min; numbers are given in μmol/hour.

[4] = test system: carboxyl esterase in lysed prostate cancer cells (PC-3); assay: Carboxyl esterase activity in cell extract, 1H NMR; type: biochemical, human; conditions: for Metabolic conversion, Prostate cancer cells PC-3: 5 million lysed cells, 37° C.
Protocol: as §1, §2

[5] = test system: carboxyl esterase in lysed breast cancer cells (MCF-7); assay: Carboxyl esterase activity in cell extract, 1H NMR; type: biochemical, human; conditions: for Metabolic conversion, Breast cancer cells MCF-7: 5 million lysed cells, 37° C.
Protocol: as §1, §2

SMILES: CC(=O)OC(C)(C)C [Tert-butyl acetate]
k ([2]; 37° C.): 0 µmol/min

SMILES: CCCC(=O)OC [Methylbutyrate]
Metabolic conversion, Lymphocytes (B + T cells) [3]: 0.90 µmol/h | Metabolic conversion, Prostate cancer cells PC-3 [4]: 0.51 µmol/h | Metabolic conversion, Breast cancer cells MCF-7 [5]: 0.42 µmol/h | k ([2]; 37° C.): 0.22 µmol/min

SMILES: CCOC(=O)C(C)OC(C)=O (stereo not shown) [ethyl 2-acetoxy propanoate]
hydrolysis by CE-2, in words [1]: hydrolysed to a similar extent | k (μmol/min), acetate ester ([2]; hydrolysis of the acetate ester function, 37° C., 60 min): 0 µmol/min | k (μmol/min), ethyl ester ([2]; hydrolysis of the ethyl ester function, 37° C., 60 min): 0.16 µmol/min

SMILES: CCOC(=O)CC(C)=O [Ethyl acetoacetate]
Metabolic conversion, Lymphocytes (B + T cells) [3]: 0.15 µmol/h | Metabolic conversion, Prostate cancer cells PC-3 [4]: 0* umol/hour | contrast in prostate cancer cells relative to lymphocytes, in words ([4]; cell number basis, FIG. 9B): highest negative contrast | Metabolic conversion, Breast cancer cells MCF-7 [5]: 0* umol/hour | contrast in breast cancer cells relative to lymphocytes, in words ([5]; cell number basis, FIG. 9A): highest contrast | k ([2]; 37° C.): 0.12 µmol/min

SMILES: CCOC(=O)C(C)O (stereo not shown) [Ethyl lactate]
k ([2]; 37° C.): 0.11 µmol/min

SMILES: CCOC(=O)CC(C)O (stereo not shown) [Ethyl 3-Hydroxybutyrate]
k ([2]; 37° C.): 0.08 µmol/min

SMILES: CCCCOC(C)=O [Butyl acetate]
k [1]: 0.24 µmol/min | hydrolysis by CE-2, in words [1]: hydrolysed to a similar extent | k ([2]; 37° C.): 0.04 µmol/min

SMILES: CCOC(=O)CCC(=O)OCC [Diethyl succinate]
Metabolic conversion, Lymphocytes (B + T cells) [3]: 0.60 µmol/h | Metabolic conversion, Prostate cancer cells PC-3 [4]: 0.48 µmol/h | Metabolic conversion, Breast cancer cells MCF-7 [5]: 0.12 µmol/h | negative contrast, lower than that of EAA ([5]; breast cancer cells relative to lymphocytes, cell number basis): approx. 3 times | k ([2]; 37° C.): 0.48 µmol/min | faster converted than ethyl acetate [2]: more than ten times faster converted

SMILES: COC(=O)CCC(=O)OC [Dimethyl succinate]
k ([2]; 37° C.): 0.41 µmol/min | faster converted than ethyl acetate [2]: more than ten times faster converted

Continued, values first:

k [1]: 0 µmol/min | hydrolysis by CE-2, in words [1]: not hydrolysed | conversion by CE-1, in words [2]: not a good substrate | k ([2]; 37° C.): 0.03 µmol/min
SMILES: CCOC(C)=O [Ethylacetate]

k [1]: 0.18 µmol/min | k ([2]; 37° C.): 0.07 µmol/min
SMILES: CC(=O)OCCOC(C)=O [Ethyleneglycol diacetate]

conversion by CE-1, in words [2]: only hydrolyzed to a very low extent | k ([2]; 37° C.): 0.02 µmol/min | conversion by CE-1, in words ([2]; listed as ethyl ester of pyroglutamate): barely detectable
SMILES: CCOC(=O)[C@@H]1CCC(=O)N1 [Ethyl pyroglutamate]

k ([2]; 37° C.): 0.12 µmol/min
SMILES: CCCC(=O)OCC [Ethylbutyrate]

conversion by CE-1, in words [2]: only hydrolyzed to a very low extent | k ([2]; 37° C.): 0 µmol/min | conversion by CE-1, in words ([2]; listed as triethyl citrate): no hydrolysis could be detected
SMILES: CCOC(=O)CC(O)(CC(=O)OCC)C(=O)OCC [Triethyl citrate]
